We go through two substances from patent US20150352196A1, “Methods and Pharmaceutical Compositions for Prevention of Aging-Related Lesions” (INSERM (INSTITUT NATIONAL DE LA SANTÉ ET DE LA RECHERCHE …, priority 2012, published 2015).

What all share (assay type): cell-based
Assay [1] concerns mouse smooth muscle cells. The assay is described as follows: mitogenic effect of IGF-1 on mouse smooth muscle cells in vitro. The following applies: IGF-1 stimulated.
In the next assay the test system is PI3kinase/Akt pathway. The assay is described as follows: FOXO reporter in transfected HEK cells exposed to IGF-1. The note with it: HEK cells transfected with FOXO reporter. The source says: In addition, the inventors transfected HEK cells by a FOXO reporter measuring the activity of the Pl3kinase/Akt pathway downstream of IGF-1 receptor.
In the next assay the test system is calpain. The assay can be described thus: calpain activity assays in cell lines expressing IGF-1 receptor after exposure to IGF-1. The note with it: including immortalized podocytes. From the text:
Inventors first focused their work on somatotropic axis and particularly IGF-1 receptor role in calpain activation. […] Calpain activity assays developed in the laboratory have been performed in several cell lines expressing IGF-1 receptor (podocyte lines, splenocytes, mesangial cells) after exposure to IGF-1.

For “(2Z)-3-(4-iodophenyl)-2-mercapto-2-Propenoic acid, 3-(4-iodophenyl)-2-mercapto-(Z)-2-propenoic acid [PD-150606]”, the “mitogenic effect of IGF-1” value in assay [1] is reported as “blunted partly but significantly”. Besides, the “activity of the PI3kinase/Akt pathway downstream of IGF-1 receptor (FOXO reporter)” value in the assay with PI3kinase/Akt pathway is reported as “inhibited significantly”. As for “IGF-1: ligand of the IGF-1 receptor, somatotropic axis; used to stimulate cell lines”, in the assay with calpain, the calpain activity result was “increase calpain activity in a dose- and time-dependent manner”.
